Legend:
[1] = DSC / modulated DSC thermal events (Tg, Low T1, Low T2, recrystallization, melt); format: physicochemical
Method: For comparative purposes, a 100% spray-dried zolmitriptan powder was prepared and analyzed via XRPD and DSC to allow for a comparison to the formulations from Example 2 that were placed on stability and to facilitate an interpretation of the resultant thermal data. Initially, a lot of amorphous 100% zolmitriptan was produced via a Buchi 290 Spray-Drying System (spray drying parameters: solids concentration=2 g/L, inlet temperature=90° C., outlet temperature=45° C., drying gas flowrate=20 kg/hr, atomization gas flowrate=10 g/min, aqueous flowrate=4 ml/Min, organic phase flowrate=6 ml/min, spray dryer pressure=−50 mbar) and analyzed via modulated DSC (TA Instruments DSC Q2000 Tzero System, MDSC Parameters: hermetically sealed double lid pan configuration, equilibrate at 0° C. for 5 minutes, ramp up to maximum of 160° C. at 2.0° C./min, modulate+/−1.00° C. every 60 seconds) to determine its glass transition temperature.

[2] = s.c.; cited from earlier work

With `CN(C)CCc1c[nH]c2ccc(C[C@H]3COC(=O)N3)cc12` [Raw material, Zolmitriptan] the “Tm (° C.)” value ([1]; 100% zolmitriptan study, t = 0) was 136.0 °C, the “ΔH” value ([1]; 100% zolmitriptan study, t = 0) was 135.3 J/g and the “Tm (° C.)” value ([1]; 100% zolmitriptan study, t = 0, listed as Zolmitriptan raw material) was “approximately 136 °C”.

In the case of `CN(C)CCc1c[nH]c2ccc(C[C@H]3COC(=O)N3)cc12` [pure amorphous zolmitriptan, Zolmitriptan], the “glass transition temperature (Tg)” value ([1]; modulated DSC, amorphous 100% zolmitriptan, Buchi 290) is reported as “approximately 33 °C”.

In the case of `CNS(=O)(=O)Cc1ccc2[nH]cc(CCN(C)C)c2c1` [sumatriptan], the reported half-lives [2] is given as about 2 h.

For `CN(C)CCc1c[nH]c2ccc(C[C@H]3COC(=O)N3)cc12` [Zolmitriptan], the reported half-lives [2] is listed as about 2 h.
